# Measurements reported in patent US6949516B2, “Dipeptide apoptosis inhibitors and the use thereof” (Cytovia, Inc., priority 1997, dated 2005).
# Where a SMILES comes first, the peptide text is derived from it. The star is where a group is joined. Cbz = O=C(OCc1ccccc1)*; CH2F = FC*
# Key:
# HeLa cells [1] = assay: Effect of Z-VD-fmk on TNF-α-induced cell death in HeLa cells (calcein AM, Example 25); type: cell-based; conditions: below 50 μM (data not shown)
# Protocol: Tumor necrosis factor alpha (TNF-α) can trigger apoptosis in a number of cell types by initiating the caspase cascade and its apoptosis inducing activity can be inhibited by peptide-based caspase inhibitors. However, high concentrations of the inhibitors (50 μM or greater) is required to have good anti-apoptotic effect. HeLa cells, a cell line commonly employed in TNF-α cell death studies, was used here to determine the anti-apoptotic potency of Z-VD-fmk.
# HeLa cells were seeded in 48-well multidishes at a density of 50,000 cells per well 24 hours before treatment. They were then pre-incubated with varying concentrations of Z-VD-fmk for 2 hours and challenged with TNF-α (25 ng/mL) and cycloheximide (CHX; 30 μg/mL). The cultures were incubated for an additional 24 hours and dead cells were removed by two washes with PBS. The density of surviving cells was then measured by incubating each culture for 45 minutes with calcein AM, a profluorescent dye which is taken up by living cells and converted to a fluorescent product. The resulting data were expressed as % control values (control values were cells incubated with cycloheximide but without TNF-α).
# Z-VD-fmk provided good cytoprotection at concentrations approaching 100 nM.
# HeLa cells [2] = assay: Cell death assay with HeLa cells, qualitative (phase contrast microscopy), TNF-α/CHX challenge; type: cell-based; conditions: 24 hour incubation
# Protocol: (§1) The cytoprotective properties of Cbz-Val-Asp(OMe)CH2F were tested using HeLa cells challenged with tumor necrosis factor-alpha (TNF-α) and cycloheximide (CHX). This is a well-characterized cell culture model of apoptosis which is commonly used to analyze anti-apoptotic agents. Two types of experiments were performed: a qualitative assessment of cell death by visualization of the cells using phase contrast microscopy; and a quantitative assessment of cell death using the fluorescent dye calcein AM.
# For photomicroscopy, HeLa cells are seeded in 12-well multidishes at a density of 100,000 cells per well in Minimal Essential Medium containing 2 mM glutamine and 10% fetal bovine serum. 24 hours later the plating medium is removed and fresh medium is added containing the cytoprotective test compound at various concentrations. The cells are pre-incubated with test compound for 2 hours at 37° C. in a CO2 incubator and then TNF-α and CHX are added at final concentrations of 25 ng/mL and 30 μg/mL, respectively. After a 24 hour incubation period, the cells are examined visually for evidence of cell death based on cell shape and degree of adherence. Cells are considered dead if they have become rounded up and phase bright and have detached from the substratum. Cells are considered alive if they have retained their normal morphology and remain attached to the substratum.
# All of these compounds are the methyl ester derivatives. […] At 50 μM, the related peptides BOC-Asp(OMe)-CH2F (FIG. 1C) and Cbz-Glu(OMe)-Val-Asp(OMe)-CH2F (FIG. 1E) are also protective.
# HeLa cells [3] = assay: Cell death assay with HeLa cells, quantitative (calcein AM), TNF-α/CHX challenge; type: cell-based
# Protocol: as §1
# For quantitative assays, the degree of cell survival in the presence of test compounds is analyzed quantitatively using the indicator dye calcein AM. This dye is taken up and converted to a fluorescent derivative by living cells; the amount of activated dye in each well can then be assayed in a fluorometric plate reader and the degree of fluorescence is used as a measure of the number of surviving cells. For these assays, HeLa cells are seeded in 48-well plates at a density of 25,000 cells per well in 0.4 mL of Minimal Essential Medium containing 2 mM glutamine and 10% fetal bovine serum. 24 hours later the plating medium is removed and 0.5 mL of fresh medium containing test compound at various concentrations is added. The cells are pre-incubated with test compound for 2 hours at 37° C. in a CO2 incubator and then TNF-α and CHX are added at final concentrations of 25 ng/mL and 30 μg/mL, respectively. After a 24 hour incubation period, the cultures are washed twice with serum-free, phenol red-free Ham's F12 to remove dead cells and 125 μL of Ham's F12 containing 8 μM calcein AM is added. […] The data are expressed as “Percent Control,” which is calculated by the following equation: Percent Control=(Calcein AM Signal in the Presence of Test Compound+TNF-α and CHX/(Calcein AM Signal in the Presence of CHX Only)×100% The use of CHX-treated cultures as controls, rather than untreated cultures, allows one to correct for the cytostatic effects of CHX. However, because CHX by itself is also a mild inducer of apoptosis in HeLa cells, strong anti-apoptotic drugs will give a Percent Control value greater than 100%.
# Quantitative experiments using calcein AM, as described above, corroborate the results obtained by microscopic examination. FIGS. 4 and 5 illustrate the results of two such experiments where the cytoprotective properties of Cbz-Val-Asp(OMe)-CH2F (a) were compared to BOC-Asp(OMe)-CH2F (b) (FIG. 5) and Cbz-Asp(OMe)-Glu(OMe)-Val-Asp(OMe)-CH2F (SEQ ID NO:1) (c) (FIG. 4) at three concentrations (0.5, 5 and 50 μM). […] By contrast, Cbz-Val-Asp(OMe)-CH2F (a) is as effective a cytoprotectant at 0.5 μM as Cbz-Asp(OMe)-Glu(OMe)-Val-Asp(OMe)-CH2F (SEQ ID NO:1) […] is at 50 μM (FIG. 4).
# In order to determine the effect of Cbz-Val-Asp(OMe)-CH2F at low doses, HeLa cells were treated with a range of concentrations from 0.05 μM to 1 μM.
# [4] = tested on: PARP cleavage in Jurkat cells; assay: Inhibition of PARP cleavage in antiFas-treated Jurkat cells (Example 22, Western blot); type: cell-based, human; conditions: antiFas-treated Jurkat cells
# Excerpt: The cleavage of the enzyme poly(ADP)ribose polymerase (PARP) appears to occur in all cells in which the caspase proteolytic cascade is activated. For this reason, PARP cleavage is widely used as a biochemical marker for caspase-mediated apoptosis. The ability of a cytoprotective drug to block PARP cleavage is considered to be an indication of the drug's ability to inhibit the caspase proteolytic cascade and, in particular, CPP32 (caspase-3), the main PARP protease. The ability of Cbz-Val-Asp(OMe)-CH2F to inhibit PARP cleavage was examined during Fas-mediated apoptosis of Jurkat cells, a human T-cell line. This cell culture model of apoptosis is well-characterized and is known to involve activation of at least two caspases, caspase-3 (CPP32) and caspase-8 (FLICE/MACH).
# For PARP cleavage assays, Jurkat cells were seeded at a density of 500,000 cells per well in six-well multidishes in RPMI 1640 medium containing 10% FBS. The cells were pre-incubated with Cbz-Val-Asp(OMe)-CH2F or other test compounds for 2 hours at 37° C. in a CO2 incubator and then a monoclonal antibody to Fas was added at a final concentration of 500 ng/mL. Incubation at 37° C. in a CO2 incubator was continued for an additional 4 hours. […] An amount of lysate corresponding to 10 to 20 μg of protein was loaded on a 7.5% SDS polyacrylamide gel and electrophoresed for 2 to 2.5 hrs at 25 mA. The protein was then transferred to a PVDF membrane, probed with a rabbit polyclonal antibody to PARP, and visualized using chemiluminescence.
# Jurkat cells were pre-incubated with 0.5, 5, or 50 μM of the following compounds: Cbz-Val-Asp(OMe)-CH2F (compound 1); BOC-Asp(OMe)-CH2F (compound 5); Cbz-Asp-α-([2,6-dichlorobenzoyloxy]-methyl ketone) (compound 6), Cbz-Glu(OMe)-Val-Asp(OMe)-CH2F (compound 3), Cbz-Asp(OMe)-Glu(OMe)-Val-Asp(OMe)-CH2F (SEQ ID NO:1) (compound 2), Cbz-Ile-Glu(OMe)-Thr-Asp(OMe)-CH2F (SEQ ID NO:2) (compound 4), or Cbz-Val-Ala-Asp(OMe)-CH2F (compound 7). The cells were then treated with antiFas and processed for Western Blotting.
# Caspase-3 = molecular target: T1, Caspase-3 (Homo sapiens, UniProt P42574); assay: Caspase-3 activity of the dipeptide inhibitors (Table III); type: biochemical
# T1 sequence (P42574 29-175 limits assumed): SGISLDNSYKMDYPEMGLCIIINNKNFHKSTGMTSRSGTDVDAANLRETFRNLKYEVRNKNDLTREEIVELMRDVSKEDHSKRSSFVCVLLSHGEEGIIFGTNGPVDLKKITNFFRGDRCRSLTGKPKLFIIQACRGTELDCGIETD
Compound,inhibition of PARP cleavage ([4]; 0.5 μM),inhibition of PARP cleavage ([4]; 5 μM),inhibition of PARP cleavage ([4]; 50 μM),IC50 (Caspase-3) [nM],further results
COC(=O)CC[C@H](NC(=O)[C@H](CC(=O)OC)NC(=O)OCc1ccccc1)C(=O)N[C@H](C(=O)N[C@@H](CC(=O)OC)C(=O)CF)C(C)C [Z-DEVD-fmk],,,,,cytoprotection against TNF-α-induced cell death (HeLa cells [1]): very ineffective
COC(=O)CC(NC(=O)OC(C)(C)C)C(=O)CF (stereo not drawn) [BOC-Asp(OMe)-CH2F],only marginally effective,effective inhibitors,effective inhibitors,,cytoprotection of HeLa cells from apoptotic effects of TNF-α and CHX (microscopy) (HeLa cells [2]; 5 μM): less effective; cytoprotection of HeLa cells from apoptotic effects of TNF-α and CHX (microscopy) (HeLa cells [2]; 50 μM): protective; protection of HeLa cells from TNF-α/CHX (calcein AM) (HeLa cells [3]; 0.5 μM): inactive; protection of HeLa cells from TNF-α/CHX (calcein AM) (HeLa cells [3]; 5 μM): effective cytoprotectant; protection of HeLa cells from TNF-α/CHX (calcein AM) (HeLa cells [3]; 50 μM): effective cytoprotectant
"O=C(O)CC(NC(=O)C(Cc1cnc[nH]1)NC(=O)OCc1ccccc1)C(=O)CF [Z-L-His-Asp-fmk, Z-His-Asp-fmk] (Cbz-His-Asp-CH2F; configuration not given here)",,,,770,
Cbz-Ala-Asp-CH2F [Z- -Ala-Asp-fmk],,,,3500,
"O=C(O)CC(NC(=O)OCc1ccccc1)C(=O)COC(=O)c1c(Cl)cccc1Cl (stereo not drawn) [Cbz-Asp-DCB, Cbz-Asp-α-([2,6-dichlorobenzoyloxy]methylketone)]",only marginally effective,only marginally effective,inhibited PARP cleavage completely,,
COC(=O)CC[C@H](NC(=O)OCc1ccccc1)C(=O)N[C@H](C(=O)N[C@@H](CC(=O)OC)C(=O)CF)C(C)C [Cbz-Glu(OMe)-Val-Asp(OMe)-CH2F],only marginally effective,effective inhibitors,effective inhibitors,,cytoprotection of HeLa cells from apoptotic effects of TNF-α and CHX (microscopy) (HeLa cells [2]; 5 μM): less effective; cytoprotection of HeLa cells from apoptotic effects of TNF-α and CHX (microscopy) (HeLa cells [2]; 50 μM): protective
CC[C@H](C)[C@H](NC(=O)OCc1ccccc1)C(=O)N[C@@H](CCC(=O)OC)C(=O)N[C@H](C(=O)N[C@@H](CC(=O)OC)C(=O)CF)[C@@H](C)O [Cbz-Ile-Glu(OMe)-Thr-Asp(OMe)-CH2F] (Cbz-IE(OMe)TD(OMe)-CH2F),only marginally effective,only marginally effective,inhibited PARP cleavage completely,,
COC(=O)C[C@H](NC(=O)[C@H](C)NC(=O)[C@@H](NC(=O)OCc1ccccc1)C(C)C)C(=O)CF [Cbz-Val-Ala-Asp(OMe)-CH2F] (Cbz-Val-Ala-Asp(OMe)-CH2F),only marginally effective,effective inhibitors,effective inhibitors,,cytoprotection of HeLa cells from TNF-α/CHX at low doses (HeLa cells [3]; concentration range 0.05 μM to 1 μM): no cytoprotection
CC(=O)N[C@@H](CC(=O)O)C(=O)N[C@@H](CCC(=O)O)C(=O)N[C@H](C(=O)N[C@H](C=O)CC(=O)O)C(C)C [Ac-DEVD-CHO],,,,,cytoprotection against TNF-α-induced cell death (HeLa cells [1]): very ineffective
"CC(C)[C@@H](C(=O)N[C@@H](CC(=O)O)C(=O)CF)N(C)C(=O)OCc1ccccc1 [Z-N-Me-L-Val-Asp-fmk, Z-N-Me-Val-Asp-fmk]",,,,1300,
COC(=O)CC[C@H](NC(=O)[C@H](CC(=O)OC)NC(=O)OCc1ccccc1)C(=O)N[C@H](C(=O)N[C@@H](CC(=O)OC)C(=O)CF)C(C)C [Cbz-Asp(OMe)-Glu(OMe)-Val-Asp(OMe)-CH2F],only marginally effective,only marginally effective,inhibited PARP cleavage completely,,cytoprotection of HeLa cells from apoptotic effects of TNF-α and CHX (microscopy) (HeLa cells [2]; 5 μM): no cytoprotective properties; cytoprotection of HeLa cells from apoptotic effects of TNF-α and CHX (microscopy) (HeLa cells [2]; 50 μM): only marginally effective; protection of HeLa cells from TNF-α/CHX (calcein AM) (HeLa cells [3]; 50 μM): only minimally effective
"O=C(O)C[C@H](NC(=O)[C@H](Cc1ccc(O)cc1)NC(=O)OCc1ccccc1)C(=O)CF [Z-L-Tyr-Asp-fmk, Z-Tyr-Asp-fmk] (Cbz-Tyr-Asp-CH2F)",,,,660,
"O=C(O)C[C@H](NC(=O)[C@@H]1CCCN1C(=O)OCc1ccccc1)C(=O)CF [Z-L-Pro-Asp-fmk, Z-Pro-Asp-fmk] (Cbz-Pro-Asp-CH2F)",,,,410,
